Data published in ChEMBL document CHEMBL3217515, “Synthesis and biological evaluation of 2,3-bis(het)aryl-4-azaindole derivatives as protein kinase inhibitors” (Medchemcomm, 2011).

Columns and labels:
[1] = molecular target: RAF proto-oncogene serine/threonine-protein kinase (Homo sapiens, UniProt P04049); test: Inhibition of RAF1 (unknown origin)
[2] = molecular target: Glycogen synthase kinase-3 beta (Homo sapiens, UniProt P49841); test: Inhibition of GSK3beta (unknown origin)
[3] = molecular target: Cyclin-dependent kinase 5 (Homo sapiens, UniProt Q00535); test: Inhibition of CDK5 (unknown origin)
Sequence of Cyclin-dependent kinase 5 (Q00535 whole entry): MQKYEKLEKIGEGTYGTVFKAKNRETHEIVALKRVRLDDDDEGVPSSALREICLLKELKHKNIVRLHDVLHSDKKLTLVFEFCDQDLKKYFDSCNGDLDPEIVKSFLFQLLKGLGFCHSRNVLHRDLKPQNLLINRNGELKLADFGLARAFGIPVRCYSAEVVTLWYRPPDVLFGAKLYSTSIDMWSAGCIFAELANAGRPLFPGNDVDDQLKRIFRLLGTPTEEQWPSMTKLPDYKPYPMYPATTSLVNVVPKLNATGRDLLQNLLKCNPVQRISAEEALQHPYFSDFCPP

[4] = molecular target: Dual specificity tyrosine-phosphorylation-regulated kinase 1A (Homo sapiens, UniProt Q13627); test: Inhibition of DYRK1A (unknown origin)

Sequence of RAF proto-oncogene serine/threonine-protein kinase (P04049 whole entry): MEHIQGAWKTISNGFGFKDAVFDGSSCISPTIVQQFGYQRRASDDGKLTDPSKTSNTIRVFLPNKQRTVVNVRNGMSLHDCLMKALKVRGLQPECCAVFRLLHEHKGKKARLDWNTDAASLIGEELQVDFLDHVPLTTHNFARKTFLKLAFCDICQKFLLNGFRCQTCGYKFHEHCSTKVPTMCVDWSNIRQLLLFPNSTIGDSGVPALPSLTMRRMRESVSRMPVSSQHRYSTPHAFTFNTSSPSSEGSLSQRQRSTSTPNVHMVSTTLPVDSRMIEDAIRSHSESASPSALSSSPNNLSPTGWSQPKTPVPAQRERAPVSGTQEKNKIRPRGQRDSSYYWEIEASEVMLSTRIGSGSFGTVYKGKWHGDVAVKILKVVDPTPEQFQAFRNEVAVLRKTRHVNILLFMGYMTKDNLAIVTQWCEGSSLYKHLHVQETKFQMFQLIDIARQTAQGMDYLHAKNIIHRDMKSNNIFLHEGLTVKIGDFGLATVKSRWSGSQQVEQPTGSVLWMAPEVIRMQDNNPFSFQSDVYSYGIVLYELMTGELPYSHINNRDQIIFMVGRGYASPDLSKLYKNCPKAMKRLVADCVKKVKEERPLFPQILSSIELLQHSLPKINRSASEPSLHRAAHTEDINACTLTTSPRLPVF
Sequence of Glycogen synthase kinase-3 beta (P49841 whole entry): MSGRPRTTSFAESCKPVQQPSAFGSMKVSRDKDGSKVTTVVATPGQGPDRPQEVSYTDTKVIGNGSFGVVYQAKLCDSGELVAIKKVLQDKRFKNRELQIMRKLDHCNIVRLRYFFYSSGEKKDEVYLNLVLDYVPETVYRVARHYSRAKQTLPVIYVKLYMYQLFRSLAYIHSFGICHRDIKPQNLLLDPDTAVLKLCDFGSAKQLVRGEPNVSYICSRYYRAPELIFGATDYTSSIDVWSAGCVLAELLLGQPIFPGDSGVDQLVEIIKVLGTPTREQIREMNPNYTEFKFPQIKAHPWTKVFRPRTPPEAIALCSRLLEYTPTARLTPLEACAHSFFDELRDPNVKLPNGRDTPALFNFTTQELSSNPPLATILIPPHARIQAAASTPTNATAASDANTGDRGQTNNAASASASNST

IC50 [1]	IC50 [2]	IC50 [3]	IC50 [4]	Compound
3.2 µM	> 10 µM	> 10 µM	1.3 µM	COc1ccc2[nH]c(-c3ccccc3)c(-c3ccncc3)c2n1
–	> 10 µM	> 10 µM	0.23 µM	COc1ccc2[nH]c(-c3ccccc3O)c(-c3ccncc3)c2n1
0.286 µM	> 10 µM	> 10 µM	0.7 µM	COc1ccc2[nH]c(-c3cccc(O)c3)c(-c3ccncc3)c2n1
1.3 µM	> 10 µM	> 10 µM	0.47 µM	COc1ccc2[nH]c(-c3ccc(O)cc3)c(-c3ccncc3)c2n1
4.3 µM	> 10 µM	> 10 µM	1.8 µM	COc1ccc2[nH]c(-c3cccc(F)c3)c(-c3ccncc3)c2n1
> 50 µM	> 10 µM	> 10 µM	0.84 µM	COc1ccc2[nH]c(-c3ccc4cc(O)ccc4c3)c(-c3ccncc3)c2n1
> 50 µM	> 10 µM	> 10 µM	> 10 µM	COc1ccc2[nH]c(-c3cc(O)cc(O)c3)c(-c3ccncc3)c2n1
16.5 µM	> 10 µM	> 10 µM	> 10 µM	COc1ccc2[nH]c(-c3cccc(O)c3)c(-c3cccnc3)c2n1
9.2 µM	> 10 µM	> 10 µM	> 10 µM	COc1ccc2[nH]c(-c3cccc(O)c3)c(-c3ccccn3)c2n1
